According to ChEMBL document CHEMBL1201862, “PubChem BioAssay data set” (2004):
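48-hour exposure; five concentrations; linearly interpolated endpoints. GI50 = concentration required for 50% inhibition of growth.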 Active and inactive are the calls of the source. Cut-off read from the data, not from the text of the source: active = GI50 up to about 1.1 µM and inactive = higher. Square brackets hold non-standard residues; d marks the D form. Peptide text beside a SMILES is read from it. * marks the point of attachment. ξ: configuration not given here. NMeY = CN[C@@H](Cc1ccc(O)cc1)C(=O)O; Cbz = O=C(OCc1ccccc1)*; ξA = CC(N)C(=O)O

Legend:
Test in all cases: NCI anticancer screen, dose series, 48 h
786-0 = test system: 786-0
COLO 205 = test system: COLO 205
DU-145 = test system: DU-145
HOP-62 = test system: HOP-62
IGROV-1 = test system: IGROV-1
LOX IMVI = test system: LOX IMVI
MDA-MB-231 = test system: MDA-MB-231
MDA-MB-435 = test system: MDA-MB-435
NCI-H226 = test system: NCI-H226
NCI-H23 = test system: NCI-H23
NCI-H522 = test system: NCI-H522
OVCAR-3 = test system: OVCAR-3
OVCAR-5 = test system: OVCAR-5
OVCAR-8 = test system: OVCAR-8
RPMI-8226 = test system: RPMI-8226
SF-295 = test system: SF-295
SF-539 = test system: SF-539
SNB-75 = test system: SNB-75
TK-10 = test system: TK-10
UO-31 = test system: UO-31

SMILES	GI50 (786-0)	GI50 (COLO 205)	GI50 (DU-145)	GI50 (HOP-62)	GI50 (IGROV-1)	GI50 (LOX IMVI)	GI50 (MDA-MB-231)	GI50 (MDA-MB-435)	GI50 (NCI-H226)	GI50 (NCI-H23)	GI50 (NCI-H522)	GI50 (OVCAR-3)	GI50 (OVCAR-5)	GI50 (OVCAR-8)	GI50 (RPMI-8226)	GI50 (SF-295)	GI50 (SF-539)	GI50 (SNB-75)	GI50 (TK-10)	GI50 (UO-31)
CC(=O)c1csc2c1C(=O)c1ccccc1C2=O	2.07 µM (inactive)	1.74 µM (inactive)	1.67 µM (inactive)	1.97 µM (inactive)	2.4 µM (inactive)	2.36 µM (inactive)	6.76 µM (inactive)	0.9 µM (active)	1.58 µM (inactive)	1.26 µM (inactive)	1.78 µM (inactive)	3.66 µM (inactive)	2.35 µM (inactive)	2.51 µM (inactive)	5.65 µM (inactive)	1.55 µM (inactive)	2.08 µM (inactive)	1.73 µM (inactive)	1.79 µM (inactive)	2.64 µM (inactive)
Nc1nc(O)c(Br)c(-c2cccc([N+](=O)[O-])c2)n1	> 100 µM (inactive)	> 100 µM (inactive)	> 100 µM (inactive)	> 100 µM (inactive)	> 83.8 µM (inactive)	> 100 µM (inactive)	> 100 µM (inactive)	> 100 µM (inactive)	49.9 µM (inactive)	40.9 µM (inactive)	26.4 µM (inactive)	> 100 µM (inactive)	> 69.8 µM (inactive)	73.5 µM (inactive)	37.8 µM (inactive)	> 50.4 µM (inactive)	> 58.1 µM (inactive)	55 µM (inactive)	> 100 µM (inactive)	> 62.1 µM (inactive)
COc1ccc(C[C@@H](C(=O)N[C@@H](C)C(N)=O)N(C)C(=O)[C@@H]2CCCN2C(=O)[C@H](CC(C)C)NC(=O)C(C)NC(=O)OCc2ccccc2)cc1 (stereo not given in full) (Cbz-[ξA]LP[NMeY](Me)A-NH2)	> 100 µM (inactive)	> 100 µM (inactive)	> 100 µM (inactive)	> 100 µM (inactive)	51.8 µM (inactive)	> 100 µM (inactive)	> 100 µM (inactive)	> 100 µM (inactive)	> 100 µM (inactive)	> 100 µM (inactive)	> 100 µM (inactive)	> 100 µM (inactive)	> 100 µM (inactive)	> 100 µM (inactive)	> 100 µM (inactive)	> 100 µM (inactive)	> 100 µM (inactive)	66.1 µM (inactive)	> 100 µM (inactive)	> 100 µM (inactive)
